The test system of assay [1] is apoptosis-related proteins in A549 cells. As to the kind of experiment: Proteome profile of apoptosis-related proteins. It is filed as cell-based, human. Particulars: 5 μM. The text has this:
This example describes an assay that measured the relative expression levels of 35 apoptosis-related proteins in a single sample of whole cell extract. Methods are according to Examples 1-2 unless otherwise specified.
The protocol and reagents were purchased from R&D systems (Human apoptosis array kit; cat. #ARY009). The kit consisted of an antibody array spotted on nitrocellulose membranes with each specific antibody printed in duplicate. The detection antibodies were biotinylated so they could be used with a streptavidin-HRP conjugate designed for chemiluminescent imaging. The protocol was modified to utilize the LiCor infrared imaging technology by substituting an infrared 680 nm-tagged streptavidin.
The following day, two μl of compound dilutions in 100% DMSO were added to the appropriate wells resulting in a final concentration of 5 μM. The plates were then incubated for 6 hours at 37° C., 5% CO2, and 85% relative humidity. Following incubation, the cells were washed with 2 ml of PBS, then lysed with 500 μl/well of Lysis buffer, supplemented with a 1/200 dilution of mammalian protease inhibitor cocktail (Sigma Aldrich). The plates were shaken for 30 min at room temperature, spun @ 14,000×g for 5 minutes. 250 μl of the supernatant was removed and added to 1.25 ml of Assay buffer 1. The supernatant and Assay buffer 1 were incubated with membranes overnight at room temperature with shaking.
The following day, the membranes were washed 3 times for 10 min each, with 1× wash buffer in individual 50 ml Falcon tubes at room temperature with rotation. The membranes were incubated with a 1/100 dilution of biotinylated detection antibodies for 3 hours at room temperature with shaking.
The membranes were washed, then incubated with a 1/1000 dilution of IR 680 nm-labeled streptavidin (LiCor) for 60 minutes with shaking in the dark. The membranes were again washed. Excess buffer was blotted from membranes, placed between two pieces of transparent plastic and imaged on the LiCor infrared imager. The LiCor Odyssey software is used to quantitate the pixel intensity of each spot in the array.
First, several compounds were evaluated in a proteome profiling array system containing antibodies to 35 apoptosis-related proteins. In this assay (see Example 3), the relative expression levels of these proteins in cell extracts are measured from treated and non-treated A549 cells.

The subject of another assay is A549 cells. In words: DNA fragmentation (Cell Death Detection ELISA), measurement of apoptosis. Particulars: A549 cells.
The test system of assay [2] is p53 and phospho-p53 (S15) in A549 NSCLC cells. As to the kind of experiment: p53 In-Cell Western. The format is cell-based, human. The settings on record: about 1-3 μM.
In assay [3] the test system is A431 cells. As to the kind of experiment: A431 cell proliferation assay (MTT), alone and in combination with Tarceva. It is filed as cell-based. Particulars: for synergistic effects with Tarceva in A431 cell proliferation (in words) / A431 Cell Proliferation CI Value: combination with Tarceva; for A431 Cell Proliferation CI Value: CI <0.8 indicates synergy.
A further assay deals with p53/MDM2 binding (Homo sapiens (Human), UniProt Q00987). As to the kind of experiment: AlphaScreen measurement of p53/MDM2 interaction (truncated GST-MDM2 aa 1-150). The protocol:
The following example describes an assay that measured the ability of compounds to inhibit the binding of p53 to MDM2 using the AlphaScreen assay technology (PerkinElmer). […] Recombinant, truncated, human, N-terminal GST-MDM2 (aa 1-150) was obtained from GeneScript. Wild-type, full length human N-terminal 6-his p53 was purchased from SignalChem.
Resulting in a final reaction volume of 24 μl PBS, 0.1% Tween-20, and 10% glycerol, 30 ng of MDM2 was added, followed by the addition of 10 of compound diluted in 100% DMSO that provided a final DMSO concentration of 4%. 30 ng of p53 was then added, mixed, and incubated at room temperature for 1 hour. Glutathione donor beads and Nickel acceptor beads (0.5 μg each; PerkinElmer) were added under subdued lighting conditions to a final reaction volume of 30 μl/well in a 96 well, ½ volume Proxima plate. The reaction was incubated at room temperature with shaking for 18 hrs in the dark. Analysis was then performed on a PerkinElmer EnSpire plate reader to determine the ability of compounds to inhibit the binding of p53 to MDM2.

The test system of assay [4] is A431 cells. As to the kind of experiment: Caspase 3/7 activity, measurement of apoptosis. The format is cell-based. The settings on record: 10 μM compared to 10 μM Tarceva.
Assay [5] addresses p53/MDM2 binding (full length MDM2) (Homo sapiens (Human), UniProt Q00987). In words: AlphaScreen p53/MDM2 binding with full length GST-MDM2. The settings on record: FIG. 1, read-out: inhibition of p53/MDM2 binding EC50.
For assay [6], the system named is p53-induced reporter gene activity. In words: p53 reporter gene assay in HEK293 cells. The settings on record: 10 μM. It is filed as cell-based. How it is done:
This example describes an assay that measures the ability of compounds to stimulate p53-induced reporter gene activity. In order for p53 activity to be observed, the interaction of p53 with MDM2 must be inhibited. Methods are according to Examples 1-5 unless otherwise specified.
HEK293 cells were transiently transfected with the inducible p53-responsive firefly luciferase reporter and constitutively-expressing Renilla construct. After 16 hrs of transfection at 37° C., 5% CO2, the transfection media was removed and 200 μl/well of assay media was added. The cells were then incubated for 8 hrs at 37° C., 5% CO2.
[…] of compound(s) was added to the cells and incubated for 16 hrs at 37° C. and 5% CO2. The cells were carefully washed with 200 μl of PBS. 20 μl_of lysis buffer was then added to each well and incubated at room temperature for 15 minutes with shaking.
The lysis buffer supernatant was transferred to a white/opaque CoStar 96-well plate and 100 μl of firefly luceriferase assay substrate was added. The luminescence in each well was determined using a Polarstar plate reader.
100 μl of Stop and Glow reagent was added to each well, mixed, and the luminescence generated by the Renilla luciferase was determined using a Polarstar plate reader. The Renilla signal was used to normalize the transfection efficiency and cell viability.
For orientation: A reporter such as luciferase makes a cellular process visible.

Where [7] appears, read: Table 7C, read-out: p53/MDM2 IC50 Value.
Where [8] appears, read: Table 9, read-out: Inhibition of p53/MDM2 Binding IC50 Value.
Where [9] appears, read: Homo sapiens, A-431, A431 cells, further studies, Example 9, Table 7A, read-out: A431 Cell Proliferation (IC50 Value).
Setting [10] is: Homo sapiens, A-431, A431 cells, preliminary assessment, Example 8, Table 6A, read-out: A431 Cell Proliferation (IC50).

Experimental findings from patent US9023354B2, “Combination therapy with MDM2 and EFGR inhibitors” (priority 2010, dated 2015) are described below.

Read-outs that look alike come from different tables or passages of the source.

Sequence of p53/MDM2 binding (Q00987 1-150): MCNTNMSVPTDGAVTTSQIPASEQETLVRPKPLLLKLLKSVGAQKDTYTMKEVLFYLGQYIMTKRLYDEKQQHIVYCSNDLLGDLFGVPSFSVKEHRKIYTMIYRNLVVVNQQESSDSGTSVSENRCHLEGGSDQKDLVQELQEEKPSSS
Sequence of p53/MDM2 binding (full length MDM2) (Q00987 whole entry): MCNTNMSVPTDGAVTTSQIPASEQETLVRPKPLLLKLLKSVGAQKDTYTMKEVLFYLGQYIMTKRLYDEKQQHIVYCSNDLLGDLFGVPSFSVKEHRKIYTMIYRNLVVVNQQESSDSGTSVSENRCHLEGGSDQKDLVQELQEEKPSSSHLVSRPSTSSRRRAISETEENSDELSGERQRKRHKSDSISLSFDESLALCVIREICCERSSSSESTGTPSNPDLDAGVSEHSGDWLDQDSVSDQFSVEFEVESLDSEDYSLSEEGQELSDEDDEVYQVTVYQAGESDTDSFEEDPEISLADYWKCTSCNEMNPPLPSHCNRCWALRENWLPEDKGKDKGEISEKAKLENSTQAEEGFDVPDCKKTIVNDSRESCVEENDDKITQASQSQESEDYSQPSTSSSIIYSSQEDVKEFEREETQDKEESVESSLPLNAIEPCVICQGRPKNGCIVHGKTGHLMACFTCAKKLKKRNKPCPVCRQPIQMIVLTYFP

With `Cc1cc(Cl)cnc1NC(c1ccc2cccnc2c1O)c1c(F)c(F)c(OCC(F)(F)F)c(F)c1F` (centres unmarked) [AD4-13243], the “phosphorylated forms of p53” value in assay [1] is given as “increased all three phosphorylated forms of p53”. Further, in the assay on A549 cells, the “DNA fragmentation / apoptosis (in words)” value is listed as “increased DNA fragmentation”. Further, the “% Inc. over Background, DNA fragmentation” value in the assay on A549 cells (1 μM) is listed as 551%; in the assay with A549 cells (10 μM), 716%. In addition, the “S15p-p53 (phosphorylated S15 p53)” value in assay [2] is “significantly increased”. Also, the “total p53 expression” value in assay [2] is “significantly increased”. Moreover, in the assay with A431 cells [3] (A431 cells, further studies, Example 9, Table 7A, read-out: A431 Cell Proliferation (IC50 Value)), the IC50 was determined as 2.2 µM.

For `Cc1ccnc(NC(c2ccc3cccnc3c2O)c2sccc2C)c1` (centres unmarked) [AD4-10963], the IC50 at p53/MDM2 binding (setting [7]) is 2000 nM; at p53/MDM2 binding (setting [8]) it was 2000 nM; in the assay on A431 cells [3] (setting [9]) it was 3.4 µM; in the assay with A431 cells [3] (setting [10]), 3.4 µM. For the same compound, in the assay on A431 cells [4], the “Caspase 3/7 activity % Increase Relative to Tarceva” value amounted to 38%. Moreover, the “synergistic effects with Tarceva in A431 cell proliferation (in words)” value in the assay with A431 cells [3] is given as “produced the greatest effects”. Also, the “A431 Cell Proliferation CI Value” was determined as 0.43 in the assay with A431 cells [3] (Example 8, Table 6B) and 0.63 with A431 cells [3] (Example 9, Table 7B). The EC50 in assay [5] is 100 nM.

In the case of `COc1ccc(C(Nc2cc(C)ccn2)c2ccc3cccnc3c2O)cc1O` (centres unmarked) [AD4-1505], the “stimulation of p53 reporter gene activity” value in assay [6] is reported as 42.5 fold. Besides, the IC50 on p53/MDM2 binding (setting [7]) worked out at 3600 nM; on p53/MDM2 binding (setting [8]) it was 4200 nM; in the assay on A431 cells [3] (setting [9]), 3.7 µM; with A431 cells [3] (setting [10]), 3.7 µM. In addition, the “Caspase 3/7 activity % Increase Relative to Tarceva” value in the assay on A431 cells [4] is 45%. In the assay on A431 cells [3], the “synergistic effects with Tarceva in A431 cell proliferation (in words)” value is “produced the greatest effects”. Further, the “A431 Cell Proliferation CI Value” was 0.45 in the assay with A431 cells [3] (Example 8, Table 6B) and 0.29 in the assay on A431 cells [3] (Example 9, Table 7B). In addition, in assay [5], the EC50 was found to be 270 nM.
